Measured values taken from article PMC9927415, “Tyrosine Kinase Inhibitors Display Potent Activity against Cryptosporidium parvum” (Microbiology Spectrum, 2022).

What was measured:
Test in all cases: KINOMEscan competitive binding, whole panel
panel of 203 kinases [1] = molecular target: T1, panel of 203 kinases (Homo sapiens, UniProt P08069); settings: 10 µM, n=1; kinase IGF1R; read-out: Percent inhibition IGF1R
T1 construct: purchased DiscoverX (KINOMEscan)
Source text: (§1) The kinases were expressed as fusions to T7 bacteriophage. This is a sensitive, competitive binding assay where test compounds were used to displace immobilized ATP-site binding probe ligands from kinases of interest. The amount of kinase that remained bound to the immobilized probe ligands on the solid support was quantified. Percentage inhibition data were was plotted on kinome trees using the web-based tool KinMap (http://www.kinhub.org/kinmap) ([60]).

panel of 203 kinases [2] = molecular target: T2, panel of 203 kinases (Homo sapiens, UniProt P31749); settings: 10 µM, n=1; kinase AKT1; read-out: Percent inhibition AKT1
T2 construct: purchased DiscoverX (KINOMEscan)
Source text: as §1

panel of 203 kinases [3] = molecular target: T3, panel of 203 kinases (Homo sapiens, UniProt P78368); settings: 10 µM, n=1; kinase CSNK1G2; read-out: Percent inhibition CSNK1G2
T3 construct: purchased DiscoverX (KINOMEscan)
Source text: as §1

panel of 203 kinases [4] = molecular target: T4, panel of 203 kinases (Homo sapiens, UniProt Q08881); settings: 10 µM, n=1; kinase ITK; read-out: Percent inhibition ITK
T4 construct: purchased DiscoverX (KINOMEscan)
T4 sequence (Q08881 1-620): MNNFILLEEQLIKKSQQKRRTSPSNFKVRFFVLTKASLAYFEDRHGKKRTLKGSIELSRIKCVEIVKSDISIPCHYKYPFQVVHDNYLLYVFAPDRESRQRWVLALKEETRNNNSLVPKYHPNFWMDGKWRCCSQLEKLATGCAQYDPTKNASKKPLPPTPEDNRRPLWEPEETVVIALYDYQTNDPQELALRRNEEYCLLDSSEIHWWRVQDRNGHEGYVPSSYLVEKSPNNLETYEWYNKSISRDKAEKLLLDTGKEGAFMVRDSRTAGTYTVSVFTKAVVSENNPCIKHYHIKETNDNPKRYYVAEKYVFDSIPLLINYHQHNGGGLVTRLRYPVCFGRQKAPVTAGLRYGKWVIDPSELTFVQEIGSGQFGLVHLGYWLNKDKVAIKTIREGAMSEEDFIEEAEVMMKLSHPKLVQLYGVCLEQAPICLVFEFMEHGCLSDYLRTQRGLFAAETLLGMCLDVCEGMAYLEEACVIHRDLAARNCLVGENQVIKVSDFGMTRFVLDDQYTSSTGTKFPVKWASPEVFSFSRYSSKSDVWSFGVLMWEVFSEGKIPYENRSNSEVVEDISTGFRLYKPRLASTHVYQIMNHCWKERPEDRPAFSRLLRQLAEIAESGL
Source text: as §1

panel of 203 kinases [5] = molecular target: T5, panel of 203 kinases (Homo sapiens, UniProt Q13188); settings: 10 µM, n=1; kinase MST2; read-out: Percent inhibition MST2
T5 construct: purchased DiscoverX (KINOMEscan)
T5 sequence (Q13188 1-491): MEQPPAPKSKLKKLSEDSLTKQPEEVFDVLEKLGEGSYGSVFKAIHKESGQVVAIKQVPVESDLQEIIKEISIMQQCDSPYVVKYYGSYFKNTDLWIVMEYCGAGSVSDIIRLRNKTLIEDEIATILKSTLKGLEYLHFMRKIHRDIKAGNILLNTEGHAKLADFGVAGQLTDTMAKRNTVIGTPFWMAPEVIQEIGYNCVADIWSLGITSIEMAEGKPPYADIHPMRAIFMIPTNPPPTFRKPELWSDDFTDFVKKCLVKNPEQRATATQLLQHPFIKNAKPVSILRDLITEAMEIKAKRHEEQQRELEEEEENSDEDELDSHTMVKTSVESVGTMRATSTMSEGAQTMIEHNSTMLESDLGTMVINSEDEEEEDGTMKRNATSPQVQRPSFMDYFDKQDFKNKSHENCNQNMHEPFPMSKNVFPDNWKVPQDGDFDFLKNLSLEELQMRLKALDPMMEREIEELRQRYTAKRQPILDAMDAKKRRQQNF
Source text: as §1

panel of 203 kinases [6] = molecular target: T6, panel of 203 kinases (Homo sapiens, UniProt Q99683); settings: 10 µM, n=1; kinase MAP3K5; read-out: Percent inhibition MAP3K5
T6 construct: purchased DiscoverX (KINOMEscan)
T6 sequence (Q99683 1-1374): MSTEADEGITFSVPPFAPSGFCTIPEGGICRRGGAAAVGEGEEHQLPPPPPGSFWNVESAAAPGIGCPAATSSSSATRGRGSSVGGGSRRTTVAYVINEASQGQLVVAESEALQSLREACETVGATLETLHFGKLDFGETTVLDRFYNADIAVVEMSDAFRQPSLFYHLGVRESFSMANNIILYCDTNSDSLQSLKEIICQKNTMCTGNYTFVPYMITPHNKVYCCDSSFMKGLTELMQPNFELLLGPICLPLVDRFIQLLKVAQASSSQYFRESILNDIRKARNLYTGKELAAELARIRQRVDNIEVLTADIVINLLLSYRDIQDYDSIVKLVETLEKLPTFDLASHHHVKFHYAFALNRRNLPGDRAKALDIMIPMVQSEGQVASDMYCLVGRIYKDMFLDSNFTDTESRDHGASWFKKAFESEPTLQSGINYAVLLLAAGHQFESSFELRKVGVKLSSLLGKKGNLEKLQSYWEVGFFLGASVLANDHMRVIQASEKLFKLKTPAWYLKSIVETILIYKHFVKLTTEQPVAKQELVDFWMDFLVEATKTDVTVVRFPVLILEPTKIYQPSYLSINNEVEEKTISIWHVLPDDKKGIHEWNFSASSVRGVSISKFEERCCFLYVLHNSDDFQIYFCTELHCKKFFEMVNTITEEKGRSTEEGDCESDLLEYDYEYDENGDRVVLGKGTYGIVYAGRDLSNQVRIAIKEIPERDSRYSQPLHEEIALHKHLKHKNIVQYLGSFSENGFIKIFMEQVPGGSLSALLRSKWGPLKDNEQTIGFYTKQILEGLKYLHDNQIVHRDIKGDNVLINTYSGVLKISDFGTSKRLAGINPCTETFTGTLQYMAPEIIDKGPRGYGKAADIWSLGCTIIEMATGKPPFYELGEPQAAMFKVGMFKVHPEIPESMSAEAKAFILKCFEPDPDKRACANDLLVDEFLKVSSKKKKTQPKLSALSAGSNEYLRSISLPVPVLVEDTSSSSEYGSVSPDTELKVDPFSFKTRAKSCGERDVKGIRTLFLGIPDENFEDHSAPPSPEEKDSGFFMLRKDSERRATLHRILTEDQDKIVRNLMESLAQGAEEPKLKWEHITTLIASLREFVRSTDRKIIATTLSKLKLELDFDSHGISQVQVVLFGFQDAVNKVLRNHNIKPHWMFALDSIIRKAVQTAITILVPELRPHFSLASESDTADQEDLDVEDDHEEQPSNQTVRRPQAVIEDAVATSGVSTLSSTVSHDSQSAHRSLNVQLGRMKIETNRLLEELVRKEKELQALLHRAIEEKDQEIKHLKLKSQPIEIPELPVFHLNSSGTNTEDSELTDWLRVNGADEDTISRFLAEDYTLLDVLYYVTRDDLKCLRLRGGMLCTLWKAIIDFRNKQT
Source text: as §1

T2 sequence (P31749 whole entry): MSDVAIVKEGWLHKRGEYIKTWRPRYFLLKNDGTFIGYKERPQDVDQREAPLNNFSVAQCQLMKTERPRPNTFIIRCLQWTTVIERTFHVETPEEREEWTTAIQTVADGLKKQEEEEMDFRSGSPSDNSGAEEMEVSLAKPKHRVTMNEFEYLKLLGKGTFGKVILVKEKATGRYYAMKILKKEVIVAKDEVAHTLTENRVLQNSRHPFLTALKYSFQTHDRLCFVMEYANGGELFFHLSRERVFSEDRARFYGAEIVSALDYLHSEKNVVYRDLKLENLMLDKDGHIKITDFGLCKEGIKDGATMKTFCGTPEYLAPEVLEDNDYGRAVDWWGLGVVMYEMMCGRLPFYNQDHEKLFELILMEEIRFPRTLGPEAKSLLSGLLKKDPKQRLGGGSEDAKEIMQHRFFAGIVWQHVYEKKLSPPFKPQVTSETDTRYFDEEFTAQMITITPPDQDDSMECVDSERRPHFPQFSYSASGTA
T1 sequence (P08069 31-1367): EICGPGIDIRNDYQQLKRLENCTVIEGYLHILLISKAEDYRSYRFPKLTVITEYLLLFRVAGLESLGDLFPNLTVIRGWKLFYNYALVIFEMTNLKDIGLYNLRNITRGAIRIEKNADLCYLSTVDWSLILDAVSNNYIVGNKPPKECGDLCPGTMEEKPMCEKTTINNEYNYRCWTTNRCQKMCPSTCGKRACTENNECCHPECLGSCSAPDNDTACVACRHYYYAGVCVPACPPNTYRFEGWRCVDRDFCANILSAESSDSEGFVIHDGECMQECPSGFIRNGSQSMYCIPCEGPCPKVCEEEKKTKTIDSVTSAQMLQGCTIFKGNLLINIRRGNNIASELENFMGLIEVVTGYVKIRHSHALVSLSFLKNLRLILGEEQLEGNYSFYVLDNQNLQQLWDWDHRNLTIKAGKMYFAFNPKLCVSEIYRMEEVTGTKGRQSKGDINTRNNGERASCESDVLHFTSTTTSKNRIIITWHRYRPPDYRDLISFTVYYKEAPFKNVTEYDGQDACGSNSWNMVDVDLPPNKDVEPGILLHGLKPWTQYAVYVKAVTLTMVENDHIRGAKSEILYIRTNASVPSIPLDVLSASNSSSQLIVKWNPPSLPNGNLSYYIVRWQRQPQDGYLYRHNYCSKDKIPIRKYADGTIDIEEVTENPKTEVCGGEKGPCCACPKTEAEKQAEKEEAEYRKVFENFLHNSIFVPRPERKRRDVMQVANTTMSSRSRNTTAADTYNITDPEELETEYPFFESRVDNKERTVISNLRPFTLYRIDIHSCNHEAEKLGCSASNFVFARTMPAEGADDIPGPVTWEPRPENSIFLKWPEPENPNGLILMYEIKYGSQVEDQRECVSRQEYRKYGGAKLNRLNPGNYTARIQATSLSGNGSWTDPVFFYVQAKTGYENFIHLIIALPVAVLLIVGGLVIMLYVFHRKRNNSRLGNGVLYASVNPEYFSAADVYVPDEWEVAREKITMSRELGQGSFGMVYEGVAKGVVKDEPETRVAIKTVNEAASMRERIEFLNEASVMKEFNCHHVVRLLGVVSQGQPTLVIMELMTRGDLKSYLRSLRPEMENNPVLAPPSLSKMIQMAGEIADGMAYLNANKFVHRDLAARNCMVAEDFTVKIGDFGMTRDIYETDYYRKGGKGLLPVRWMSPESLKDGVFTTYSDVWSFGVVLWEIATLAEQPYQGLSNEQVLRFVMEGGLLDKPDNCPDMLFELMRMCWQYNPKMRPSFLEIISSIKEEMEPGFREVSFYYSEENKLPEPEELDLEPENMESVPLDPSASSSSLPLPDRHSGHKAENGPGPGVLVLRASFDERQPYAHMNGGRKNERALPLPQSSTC
T3 sequence (P78368 whole entry): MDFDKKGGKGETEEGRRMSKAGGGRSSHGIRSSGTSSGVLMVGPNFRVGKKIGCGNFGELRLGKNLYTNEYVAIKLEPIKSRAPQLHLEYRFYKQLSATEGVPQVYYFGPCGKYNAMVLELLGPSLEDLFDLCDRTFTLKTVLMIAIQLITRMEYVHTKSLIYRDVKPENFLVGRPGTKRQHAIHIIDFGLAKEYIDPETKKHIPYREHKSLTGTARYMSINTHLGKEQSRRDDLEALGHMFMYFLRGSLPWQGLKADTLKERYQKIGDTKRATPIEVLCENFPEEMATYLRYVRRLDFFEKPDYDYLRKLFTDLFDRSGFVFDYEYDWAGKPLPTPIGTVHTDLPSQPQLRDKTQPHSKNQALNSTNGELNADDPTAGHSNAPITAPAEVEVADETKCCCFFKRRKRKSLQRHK

CN1CCN(c2ccc(Nc3nccc(-c4cnn5ncccc45)n3)cc2C#N)CC1 [Compound 1]
inhibition at 10 µM (panel of 203 kinases [1]): 99.4%
inhibition at 10 µM (panel of 203 kinases [2]): 0%
inhibition at 10 µM (panel of 203 kinases [3]): 88.3%
inhibition at 10 µM (panel of 203 kinases [4]): 79%
inhibition at 10 µM (panel of 203 kinases [5]): 100%
inhibition at 10 µM (panel of 203 kinases [6]): 0%

COc1ccc(Nc2nccc(-c3cnn4ncccc34)n2)cc1 [Compound 2]
inhibition at 10 µM (panel of 203 kinases [1]): 98.1%
inhibition at 10 µM (panel of 203 kinases [2]): 0%
inhibition at 10 µM (panel of 203 kinases [3]): 93.6%
inhibition at 10 µM (panel of 203 kinases [4]): 0%
inhibition at 10 µM (panel of 203 kinases [5]): 89.9%
inhibition at 10 µM (panel of 203 kinases [6]): 0%

Cc1ccc(O)cc1Nc1ccnc(Nc2cccc(C(N)=O)c2)n1 [Compound 3]
inhibition at 10 µM (panel of 203 kinases [1]): 0%
inhibition at 10 µM (panel of 203 kinases [2]): 0%
inhibition at 10 µM (panel of 203 kinases [3]): 93.3%
inhibition at 10 µM (panel of 203 kinases [4]): 0%
inhibition at 10 µM (panel of 203 kinases [5]): 94.4%
inhibition at 10 µM (panel of 203 kinases [6]): 0%

Cc1ccc(O)cc1N(C)c1ccnc(Nc2cccc(S(N)(=O)=O)c2)n1 [Compound 4]
inhibition at 10 µM (panel of 203 kinases [1]): 0%
inhibition at 10 µM (panel of 203 kinases [2]): 0%
inhibition at 10 µM (panel of 203 kinases [3]): 75.8%
inhibition at 10 µM (panel of 203 kinases [4]): 0%
inhibition at 10 µM (panel of 203 kinases [5]): 99.2%
inhibition at 10 µM (panel of 203 kinases [6]): 0%

Fc1cccc(COc2ccc(Nc3ncnc4c3CN(CCN3CCOCC3)CC4)cc2Cl)c1 [Compound 6]
inhibition at 10 µM (panel of 203 kinases [1]): 0%
inhibition at 10 µM (panel of 203 kinases [2]): 0%
inhibition at 10 µM (panel of 203 kinases [3]): 0%
inhibition at 10 µM (panel of 203 kinases [4]): 0%
inhibition at 10 µM (panel of 203 kinases [5]): 0%
inhibition at 10 µM (panel of 203 kinases [6]): 0%

COc1cc(Nc2nccc(-c3sc(N)nc3-c3cccc(NC(=O)c4c(F)cccc4F)c3)n2)cc(OC)c1OC [Compound 7]
inhibition at 10 µM (panel of 203 kinases [1]): 95.9%
inhibition at 10 µM (panel of 203 kinases [2]): 0%
inhibition at 10 µM (panel of 203 kinases [3]): 0%
inhibition at 10 µM (panel of 203 kinases [4]): 0%
inhibition at 10 µM (panel of 203 kinases [5]): 99.9%
inhibition at 10 µM (panel of 203 kinases [6]): 0%

C[C@@H](Oc1cc(-c2cnc3ccccn23)sc1C(N)=O)c1ccccc1Cl [Compound 8]
inhibition at 10 µM (panel of 203 kinases [1]): 0%
inhibition at 10 µM (panel of 203 kinases [2]): 0%
inhibition at 10 µM (panel of 203 kinases [3]): 0%
inhibition at 10 µM (panel of 203 kinases [4]): 0%
inhibition at 10 µM (panel of 203 kinases [5]): 81%
inhibition at 10 µM (panel of 203 kinases [6]): 0%

c1ccc(COc2cccc(-c3ccnc4[nH]ccc34)c2)cc1 [Compound 9]
inhibition at 10 µM (panel of 203 kinases [1]): 0%
inhibition at 10 µM (panel of 203 kinases [2]): 0%
inhibition at 10 µM (panel of 203 kinases [3]): 0%
inhibition at 10 µM (panel of 203 kinases [4]): 0%
inhibition at 10 µM (panel of 203 kinases [5]): 0%
inhibition at 10 µM (panel of 203 kinases [6]): 0%

Clc1ccc(Nc2ncc(-c3ccccc3)s2)cc1 [Compound 10]
inhibition at 10 µM (panel of 203 kinases [1]): 0%
inhibition at 10 µM (panel of 203 kinases [2]): 0%
inhibition at 10 µM (panel of 203 kinases [3]): 0%
inhibition at 10 µM (panel of 203 kinases [4]): 0%
inhibition at 10 µM (panel of 203 kinases [5]): 0%
inhibition at 10 µM (panel of 203 kinases [6]): 0%

Nc1ncc2c(-c3ccncc3)c[nH]c2n1 [Compound 11]
inhibition at 10 µM (panel of 203 kinases [1]): 0%
inhibition at 10 µM (panel of 203 kinases [2]): 0%
inhibition at 10 µM (panel of 203 kinases [3]): 89.7%
inhibition at 10 µM (panel of 203 kinases [4]): 73.2%
inhibition at 10 µM (panel of 203 kinases [5]): 86.8%
inhibition at 10 µM (panel of 203 kinases [6]): 0%
